A short description of series [1]: Nucleation induction time measurement from supersaturated solution. Type of series: physicochemical. Conditions: for Nucleation induction time / Time high (supersaturated) concentration maintained: 25 °C. How it is done:
HPLC was analyzed using a Dionex-Ultimate 3000 HPLC (Dionex, Sunnyvale, CA, USA) equipped with an Inertsil ODS C18 (6.0 × 150 mm) column at 35 °C. […] The samples were analyzed by injecting 10 μL at 244 nm using a UV detector. […] The linearity was evaluated by linear regression analysis calculated using the least-squares regression method. […] The experiment was performed in triplicate (mean values + SD). Each polymer (chitosan and HPMC) was dissolved in an aqueous solution at a concentration of 500 μg/mL.

Details of series [2]: method as in a previous report. The conditions noted are these: absence of polymer; ref a previous report; cited from earlier work.

With `CC(C)c1nc(CN(C)C(=O)N[C@H](C(=O)N[C@@H](Cc2ccccc2)C[C@H](O)[C@H](Cc2ccccc2)NC(=O)OCc2cncs2)C(C)C)cs1` [RTV, ritonavir], the Nucleation induction time came to 32 h in series [1] (HPMC solution 500 μg/mL), 0.5 h in series [1] (absence of polymer (water)) and 24 h in series [1] (chitosan solution 500 μg/mL). The “Time high (supersaturated) concentration maintained” value is 24 h in series [1] (chitosan solution 500 μg/mL) and 0.5 h in series [1] (water). The “Enhancement in induction time” value in series [1] (with chitosan and HPMC versus no polymer) was 48–64 fold. In addition, the Induction time in series [2] is listed as 120 min.

The record behind these values is paper PMC10007235 (Polymers, 2023).
